Reference: the NIST ThermoML archive (doi:10.1016/j.fluid.2014.04.002)

What was measured:
[1] = 101 kPa, Liquid; for viscosity: Concentric cylinders viscometry; for mass density: Vibrating tube method
[2] = refractive index (Na D-line) (dimensionless); conditions: 101.33 kPa, Liquid, Standard Abbe refractometry
[3] = xn = mol fraction of the nth substance listed; conditions: 101 kPa, Liquid; for viscosity: Concentric cylinders viscometry; for mass density: Vibrating tube method
[4] = refractive index (Na D-line) (dimensionless); xn = mol fraction of the nth substance listed; conditions: 101 kPa, Liquid, Standard Abbe refractometry

CC(O)CO (stereo unspecified) [1,2-propanediol]
Conditions | mass density, [1] [kg/m3] | refractive index, [2] | viscosity, [1] [mPa·s]
288.15 K | 1039.87 | 1.43437 | 82.54
293.15 K | 1036.25 | 1.4327 | 56.62
298.15 K | 1032.59 | 1.43102 | 44.03
303.15 K | 1028.88 | 1.42934 | 33.16
308.15 K | 1025.14 | 1.42764 | 25.45
313.15 K | 1021.35 | 1.42591 | 19.85
318.15 K | 1017.52 | 1.4242 | 15.73
323.15 K | 1013.66 | 1.42246 | 12.64

CCOC(=O)C(C)O (stereo not drawn) [DL-ethyl lactate] + COCCOCCOCCOCCOC
x1 = 1
Conditions | mass density, [3] [kg/m3] | refractive index, [4] | viscosity, [3] [mPa·s]
288.15 K | 1039.28 | 1.41537 | 3.207
293.15 K | 1033.84 | 1.41307 | 2.75
298.15 K | 1028.39 | 1.41076 | 2.39
303.15 K | 1022.92 | 1.40843 | 2.097
308.15 K | 1017.42 | 1.4061 | 1.858
313.15 K | 1011.9 | 1.40374 | 1.658
318.15 K | 1006.36 | 1.40136 | 1.491
323.15 K | 1000.79 | 1.39898 | 1.349

CC(O)CO (stereo unspecified) [1,2-propanediol] + CCOC(=O)C(C)O
x2 = 0
Conditions | mass density, [3] [kg/m3] | refractive index, [4] | viscosity, [3] [mPa·s]
288.15 K | 1039.87 | 1.43437 | 82.54
293.15 K | 1036.25 | 1.4327 | 56.62
298.15 K | 1032.59 | 1.43102 | 44.03
303.15 K | 1028.88 | 1.42934 | 33.16
308.15 K | 1025.14 | 1.42764 | 25.45
313.15 K | 1021.35 | 1.42591 | 19.85
318.15 K | 1017.52 | 1.4242 | 15.73
323.15 K | 1013.66 | 1.42246 | 12.64

CCOC(=O)C(C)O (racemic) [DL-ethyl lactate]
Conditions | mass density, [1] [kg/m3] | refractive index, [2] | viscosity, [1] [mPa·s]
288.15 K | 1039.28 | 1.41537 | 3.207
293.15 K | 1033.84 | 1.41307 | 2.75
298.15 K | 1028.39 | 1.41076 | 2.39
303.15 K | 1022.92 | 1.40843 | 2.097
308.15 K | 1017.42 | 1.4061 | 1.858
313.15 K | 1011.9 | 1.40374 | 1.658
318.15 K | 1006.36 | 1.40136 | 1.491
323.15 K | 1000.79 | 1.39898 | 1.349

C1CCOC1 [tetrahydrofuran] + CCOC(=O)C(C)O
x2 = 0
Conditions | mass density, [3] [kg/m3] | refractive index, [4] | viscosity, [3] [mPa·s]
288.15 K | 893.293 | 1.41005 | 0.5252
293.15 K | 887.865 | 1.40737 | 0.5048
298.15 K | 882.403 | 1.40472 | 0.4847
303.15 K | 876.911 | 1.40203 | 0.464
308.15 K | 871.384 | 1.39931 | 0.4433
313.15 K | 865.82 | 1.39659 | 0.4227
318.15 K | 860.213 | 1.3938 | 0.4005
323.15 K | 854.558 | 1.39098 | 0.3636

OCCCO [propan-1,3-diol]
Conditions | mass density, [1] [kg/m3] | refractive index, [2] | viscosity, [1] [mPa·s]
288.15 K | 1055.89 | 1.44091 | 67.3
293.15 K | 1052.8 | 1.43949 | 52.52
298.15 K | 1049.69 | 1.43808 | 41.51
303.15 K | 1046.57 | 1.43667 | 33.2
308.15 K | 1043.43 | 1.43526 | 26.86
313.15 K | 1040.28 | 1.43384 | 21.97
318.15 K | 1037.11 | 1.43243 | 18.14
323.15 K | 1033.91 | 1.43101 | 15.2

OCCCO [propan-1,3-diol] + CCOC(=O)C(C)O
x2 = 0
Conditions | mass density, [3] [kg/m3] | refractive index, [4] | viscosity, [3] [mPa·s]
288.15 K | 1055.89 | 1.44091 | 67.3
293.15 K | 1052.8 | 1.43949 | 52.52
298.15 K | 1049.69 | 1.43808 | 41.51
303.15 K | 1046.57 | 1.43667 | 33.2
308.15 K | 1043.43 | 1.43526 | 26.86
313.15 K | 1040.28 | 1.43384 | 21.97
318.15 K | 1037.11 | 1.43243 | 18.14
323.15 K | 1033.91 | 1.43101 | 15.2

COCCOCCOCCOCCOC [2,5,8,11,14-pentaoxapentadecane]
Conditions | mass density, [1] [kg/m3] | refractive index, [2] | viscosity, [1] [mPa·s]
288.15 K | 1016.7 | 1.43553 | 4.353
293.15 K | 1012.06 | 1.43338 | 3.795
298.15 K | 1007.42 | 1.43123 | 3.348
303.15 K | 1002.79 | 1.42906 | 2.983
308.15 K | 998.153 | 1.42697 | 2.668
313.15 K | 993.523 | 1.42447 | 2.407
318.15 K | 988.892 | 1.42206 | 2.185
323.15 K | 984.262 | 1.41985 | 2.003

C1CCOC1 [tetrahydrofuran]
Conditions | mass density, [1] [kg/m3] | refractive index, [2] | viscosity, [1] [mPa·s]
288.15 K | 893.293 | 1.41005 | 0.5252
293.15 K | 887.865 | 1.40737 | 0.5048
298.15 K | 882.403 | 1.40472 | 0.4847
303.15 K | 876.911 | 1.40203 | 0.464
308.15 K | 871.384 | 1.39931 | 0.4433
313.15 K | 865.82 | 1.39659 | 0.4227
318.15 K | 860.213 | 1.3938 | 0.4005
323.15 K | 854.558 | 1.39098 | 0.3636
